Publication PMC6651341, “EDB-FN Targeted Peptide–Drug Conjugates for Use against Prostate Cancer” (International Journal of Molecular Sciences, 2019)
“And” between values parts separate entries of the source, which are not always exact repeats. Equal entries are not always repeated. Where a SMILES comes first, the peptide text is derived from it. Bridges are numbered along the chain shown (N, C = ends). [ ]: non-standard residue; d: D form. The star is where a group is joined. X1 = CC(=O)O[C@@]12CO[C@@H]1C[C@H](O)[C@@]1(C)C(=O)[C@H](O)C3=C(C)[C@@H](OC(=O)[C@H](OC(=O)CCNC(=O)C4CCC(CN5C(=O)CC(*)C5=O)CC4)[C@@H](NC(=O)OC(C)(C)C)c4ccccc4)C[C@@](O)([C@@H](OC(=O)c4ccccc4)[C@H]21)C3(C)C; Doxorubicin(Traut) = COc1cccc2c1C(=O)c1c(O)c3c(c(O)c1C2=O)C[C@@](O)(C(=O)CO)C[C@@H]3O[C@H]1C[C@H](NC(=N)CCCS*)[C@H](O)[C@H](C)O1; Ahx = NCCCCCC(=O)O

Key:
[1] = tested on: RWPE-1, PC3, LNCap, Du-145 cell lines; experiment: MTS cell viability, range over four cell lines; type: cell-based, human; settings: 5 µM, 72 h incubation
Source text: (§1) Human epithelial prostate cell line (RWPE-1, ATCC No. CRL-11610), human prostate cancer cell line (Human prostate carcinoma DU-145, ATCC No. HTB-81), human adenocarcinoma PC3, ATCC No. CRL-1435), androgen-sensitive human prostate adenocarcinoma cells (LNCaP, ATCC No. CRL-1740), and castration-resistant LNCaP-derived C4-2 (ATCC No. CRL-1595) were purchased from American Type Culture Collection (ATCC), Manassas, VA, USA. All the media, serum, and antibiotics were bought from American Type Culture Collection (ATCC) (Manassas, VA, USA) and Sigma life-science (St. Louis, MO, USA). Keratinocytes SFM (1×) with EGF + BPE was bought from Gibco life technologies (Thermo Fisher Scientific), Gaithersburg, MD, USA. CellTiter 96 was bought from Promega, Madison, WI, USA. Dithiothreitol (DTT) was bought from Thermo Fisher scientific, Carlsbad, CA, USA, and TGF-β was bought from Abcam, Boston, MA, USA.
(§2) Cell-proliferation assay using MTS reagent was conducted against five cell lines (RWPE-1, PC3, DU-145, LNCaP, and, C4-2). Cells were seeded into 96-well plates (5 × 10^3 cells for all the cells) and incubated with 100 µL of complete medium (RPMI-1640 for RWPE-1, DU-145, LNCaP, and C4-2; DMEM for PC3) overnight at 37 °C with 5% CO2. Various concentrations (0, 0.06, 0.6, 6, 60, 600 μM) of the peptide solution (20 μL) were added to cells to yield the final concentrations of peptide (0, 0.01, 0.1, 1, 10, 100 μM). The cells were kept in an incubator (37 °C, 5% CO2) for 24, 48, or 72 h accordingly for different treatment time responses. […] The absorbance was obtained at 490 nm using SpectraMax M2 microplate reader to detect the formazan product. […] The percentage of cell viability was calculated by [(OD value of cells treated with the test mixture of compounds) − (OD value of culture medium)] / [(OD value of control cells) − (OD value of culture medium)] × 100%. […] Cell viability was determined by measuring the absorbance at 490 nm using SpectraMax M2 microplate spectrophotometer, as mentioned above.

[2] = tested on: C4-2 cells with TGF-β treatment (EDB-FN overexpression); experiment: MTS cell viability of C4-2 cells treated with TGF-β to overexpress EDB-FN; type: cell-based, human; settings: C4-2, TGF-β 10 ng/mL for 3 days; for decrease in cell viability in TGF-β treated cells as compared to untreated cells: after 72 h
Description: Cell-proliferation assay using MTS reagent was conducted against five cell lines (RWPE-1, PC3, DU-145, LNCaP, and, C4-2). Cells were seeded into 96-well plates (5 × 10^3 cells for all the cells) and incubated with 100 µL of complete medium (RPMI-1640 for RWPE-1, DU-145, LNCaP, and C4-2; DMEM for PC3) overnight at 37 °C with 5% CO2. Various concentrations (0, 0.06, 0.6, 6, 60, 600 μM) of the peptide solution (20 μL) were added to cells to yield the final concentrations of peptide (0, 0.01, 0.1, 1, 10, 100 μM). The cells were kept in an incubator (37 °C, 5% CO2) for 24, 48, or 72 h accordingly for different treatment time responses. Then, a CellTiter 96 aqueous solution (20 μL) was added to each well and incubated for 4 h under the same condition. The absorbance was obtained at 490 nm using SpectraMax M2 microplate reader to detect the formazan product. Wells containing cells in the absence of any peptide were used as a control. The percentage of cell viability was calculated by [(OD value of cells treated with the test mixture of compounds) − (OD value of culture medium)] / [(OD value of control cells) − (OD value of culture medium)] × 100%. […] Cell viability was determined by measuring the absorbance at 490 nm using SpectraMax M2 microplate spectrophotometer, as mentioned above.
To compare the cytotoxicity of compounds using treatment of TGF-β, the cells were culture, and 8000 cells (RPWE-1, PC3, DU-145, LNCap, and C4-2) were added in 120 μL per well with TGF-β treatment. Cells were exposed to TGF-β at 10 ng/mL for 3 days. Then cells were seeded in the corresponding medium (DMEM containing 10% FBS and 1% penicillin–streptomycin for DU-145, LNCaP, and PC3; keratinocyte containing 0.1% FBS without antibiotics for RWPE-1), 24 h prior to the experiment. Then, MTS assay was followed up, as mentioned in 3.5.1.

PC3 = experiment: MTS cell viability assay, PC3; type: cell-based, human; settings: PC3, 2 h incubation, 0.01-100 µM in 5% DMSO
Source text: as §1, §2

[3] = Stability under redox conditions with dithiothreitol (DTT); type: physicochemical; settings: PBS pH 7.4, 12 equiv DTT (0.12 mM DTT, 0.010 mM peptide), analytical HPLC 214 nm, % remaining from AUC
Description: (§3) The stability of peptide–drug conjugate 13 was evaluated in the phosphate buffered saline (PBS). The pH of PBS was adjusted to 6.8, 7.0, 7.4 using HCl and NaOH as needed. In brief, 250 µL of 1 × PBS was mixed with 45 µL of 0.25 mM Dox-peptide conjugate 13. The mixture was incubated at 37 °C in a water bath covered with aluminum foil. An aliquot (40 µL) was removed at different time intervals, such as 4, 24, and 84 h and analyzed using analytical RP-HPLC at 490 nm. The percentage of the remained peptide was calculated using the area under the curve (AUC) by integrating the chromatogram in analytical HPLC. For evaluation of stability in DTT, a solution of DTT (0.120 mM) was prepared using PBS (pH 7.4). A solution of compounds (1, 8, and 13 at 1 mM) was prepared in PBS (pH = 7.4). A volume of 45 µL of the peptide was added to 2.250 mL of PBS in a UV-blocking glass vial. The glass vials were put under nitrogen and stirred using a small magnetic bead. A volume of DTT ([…], 12 equiv) was added to the solution, which was incubated with each peptide sample to obtain a working concentration of 0.12 mM DTT and 0.010 mM peptide. Aliquots of 200 µL were collected at different time intervals and analyzed using analytical HPLC vials (0 min was used as controls without DTT) after quenching the DTT with 10 µL of H2O (pH = 2). The aliquots were run on analytical HPLC with detection at 214 nm.

[4] = Stability in PBS at different pH; type: physicochemical; settings: pH values ranging from 6.5 to 7.4 (method: 6.8, 7.0, 7.4), 37 °C, aliquots at 4, 24, 84 h, analytical RP-HPLC 490 nm, % remaining from AUC
Description: as §3

[5] = Stability in 25% human serum; type: in vitro ADME; settings: 25% human serum in RPMI-1640, 37 °C, conjugate 125 µM, aliquots 2-120 min, methanol precipitation, analytical HPLC, trendline R^2 0.978, each point average of three readings
Description: The stability was performed using 25% human serum. 325 µL of RPMI-1640 media was incubated with 125 µL of human serum at 37 °C in a water bath. Then 50 µL of 125 µM of conjugate 13 was added to the RPMI and serum. The control experiment was performed without conjugate using an aqueous 5% DMSO. Several aliquots (55 µL) were removed at 2, 5, 10, 15, 30, 60, 90, and 120 min. The aliquots were added to 120 µL of cold methanol to precipitate the serum proteins with vigorous mixing using vortex and kept at ice for 10 min. Then, the samples were centrifuged at 17× g (13,300 rpm) for 10 min to get a pellet of the insoluble peptide. The supernatant was collected and analyzed on analytical HPLC, as mentioned before.

Human cathepsin B = molecular target: T1, Human cathepsin B (Homo sapiens, UniProt P07858); experiment: Hydrolysis with cathepsin B enzyme; type: in vitro ADME; settings: activated human cathepsin B, 50 mM acetate buffer pH 5.0 with 1 mM EDTA, 8 µL of 1 mM conjugate per 200 µL, HPLC 214/490 nm and MALDI-TOF
T1 construct: purchased Athens Research Lot # CB2016-02 (a lot number; no catalogue number given)
Description: Human cathepsin B (CTSB, Lot # CB2016-02 from Athens Research, Athens, GA, USA) was used to hydrolyze the cathepsin linker GFLG in conjugated peptide 13. A stock solution of cathepsin B enzyme (0.434 µg/µL) was prepared using 50 mM acetate (pH 5.0) buffer with 1 mM EDTA. The activation buffer was separately prepared using 30 mM DTT and 15 mM EDTA in H2O. An aliquot of 2.25 µL of cathepsin B stock was activated with 5 µL of activation buffer for 15 min at room temperature then diluted with 1.185 mL of acetate buffer and aliquoted into different tubes with 200 µL each. Further 8 µL of 1 mM of conjugated peptide 13 was added to aliquots and incubated for various time intervals. Then, the reaction was quenched by boiling to denature cathepsin B for 10 min. A 400 µL of cold methanol was added to precipitate the proteins followed by centrifugation of sample 17× g (13,300 rpm) for 10 min. A supernatant (500 µL) was collected, evaporated, and reconstituted with 300 µL of HPLC solvent A (H2O with 0.1% TFA). The eluent fraction from HPLC was further collected and analyzed using MALDI-TOF mass spectrometry to confirm the hydrolysis of the conjugate.

C4-2 = experiment: MTS cell viability assay, C4-2 without TGF-β; type: cell-based, human; settings: C4-2 without TGF-β, 24–72 h
Source text: as §1, §2

Row | Structure (SMILES) | cell proliferation (cell viability), range over all four cell lines [1] | decrease in cell viability in TGF-β treated cells as compared to untreated cells [2] [%] | toxicity at or below 10 µM (PC3) | cytotoxicity compared to drug alone (C4-2) | also measured
1 | CC(=O)O[C@@]12CO[C@@H]1C[C@H](O)[C@@]1(C)C(=O)[C@H](O)C3=C(C)[C@@H](OC(=O)[C@H](O)[C@@H](NC(=O)OC(C)(C)C)c4ccccc4)C[C@@](O)([C@@H](OC(=O)c4ccccc4)[C@H]21)C3(C)C [Doce, docetaxel, reference compound] | 54–61% | 16 |  |  | 
2 | COc1cccc2c1C(=O)c1c(O)c3c(c(O)c1C2=O)C[C@@](O)(C(=O)CO)C[C@@H]3O[C@H]1C[C@H](N)[C@H](O)[C@H](C)O1 [Dox, doxorubicin, reference compound] | 20–34% |  | no significant toxicity |  | effect of TGF-β treatment on cytotoxicity compared to TGF-β untreated cells [2]: no observed effect
3 | CC(C)[C@@H]1NC(=O)[C@H]([C@@H](C)O)NC(=O)[C@@H](N)CCCCNC(=O)CC[C@@H](C(N)=O)NC(=O)[C@H](CC(=O)O)NC(=O)[C@H](C)NC(=O)[C@H](CO)NC(=O)[C@H]([C@@H](C)O)NC(=O)[C@H](CCCNC(=N)N)NC1=O [compound 8] (H-KTVRTSADE-NH2; lactam 1-9) |  |  |  |  | half-life / stability under redox conditions (DTT) [3]: > 8 h and 8 h
4 | COc1cccc2c1C(=O)c1c(O)c3c(c(O)c1C2=O)C[C@@](O)(C(=O)CO)C[C@@H]3O[C@H]1C[C@H](NC(=N)CCCSSC[C@H](N)C(=O)NCC(=O)N[C@@H](Cc2ccccc2)C(=O)N[C@@H](CC(C)C)C(=O)NCC(=O)NCCCCCC(=O)N[C@H]2CCCCNC(=O)CC[C@@H](C(N)=O)NC(=O)[C@H](CC(=O)O)NC(=O)[C@H](C)NC(=O)[C@H](CO)NC(=O)[C@H]([C@@H](C)O)NC(=O)[C@H](CCCNC(=N)N)NC(=O)[C@H](C(C)C)NC(=O)[C@H]([C@@H](C)O)NC2=O)[C@H](O)[C@H](C)O1 [compound 13] (H-C(Doxorubicin(Traut))GFLG[Ahx]KTVRTSADE-NH2; lactam 7-15) | 25–35% | 17 | no significant toxicity | less cytotoxic as compared to drug alone | half-life in PBS [4]: ~ 10 h; half-life at 12.5 µM [5]: ~0.197 h; time within which cathepsin B cleaves the GFLG linker / releases drug (Human cathepsin B): ≤ 5 min
5 | CC(=O)O[C@@]12CO[C@@H]1C[C@H](O)[C@@]1(C)C(=O)[C@H](O)C3=C(C)[C@@H](OC(=O)[C@H](OC(=O)CCNC(=O)C4CCC(CN5C(=O)CC(SC[C@H](N)C(=O)NCC(=O)N[C@@H](Cc6ccccc6)C(=O)N[C@@H](CC(C)C)C(=O)NCC(=O)NCCCCCC(=O)N[C@H]6CCCCNC(=O)CC[C@@H](C(N)=O)NC(=O)[C@H](CC(=O)O)NC(=O)[C@H](C)NC(=O)[C@H](CO)NC(=O)[C@H]([C@@H](C)O)NC(=O)[C@H](CCCNC(=N)N)NC(=O)[C@H](C(C)C)NC(=O)[C@H]([C@@H](C)O)NC6=O)C5=O)CC4)[C@@H](NC(=O)OC(C)(C)C)c4ccccc4)C[C@@](O)([C@@H](OC(=O)c4ccccc4)[C@H]21)C3(C)C (stereo partly drawn) [compound 14] (H-C(X1)GFLG[Ahx]KTVRTSADE-NH2; lactam 7-15) |  | 10 |  | less cytotoxic as compared to drug alone | 
